Measurements taken from publication PMC4516315 (Journal of Medicinal Chemistry, 2015).

Biological target: T1, recombinant P. falciparum DHODH (Plasmodium falciparum, UniProt Q08210)
T1 sequence (Q08210 24-569): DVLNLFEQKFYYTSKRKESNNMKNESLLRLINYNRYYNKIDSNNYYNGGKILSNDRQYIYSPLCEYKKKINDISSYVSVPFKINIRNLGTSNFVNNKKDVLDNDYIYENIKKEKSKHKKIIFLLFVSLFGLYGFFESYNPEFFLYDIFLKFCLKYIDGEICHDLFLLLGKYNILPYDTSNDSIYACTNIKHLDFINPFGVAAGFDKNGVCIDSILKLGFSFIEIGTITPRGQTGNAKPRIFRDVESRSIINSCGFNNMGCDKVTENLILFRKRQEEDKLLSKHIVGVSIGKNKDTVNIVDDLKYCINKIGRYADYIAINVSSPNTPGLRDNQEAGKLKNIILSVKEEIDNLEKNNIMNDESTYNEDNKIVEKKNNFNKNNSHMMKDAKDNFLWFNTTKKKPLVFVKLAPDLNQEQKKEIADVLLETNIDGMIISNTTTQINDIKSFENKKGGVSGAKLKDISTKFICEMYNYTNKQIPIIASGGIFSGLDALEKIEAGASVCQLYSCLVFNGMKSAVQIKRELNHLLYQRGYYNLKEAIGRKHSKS
Test: P. falciparum DHODH enzymatic assay
Conditions: biochemical assay

| inhibition of recombinant P. falciparum DHODH | Structure (SMILES) |
| --- | --- |
| completely devoid of effect | Cc1c(Oc2c(F)cccc2F)c(OC(C)C)nn1-c1ccc(C2CC2)nn1 [compound 10q, 3-Cyclopropyl-6-(4-(2,6-difluorophenoxy)-3-isopropoxy-5-methyl-1H-pyrazol-1-yl)pyridazine] |
| completely devoid of effect | Cc1ccc(-n2nc(OC(C)C)c(Oc3c(F)cccc3F)c2C)nn1 [22a, 3-(4-(2,6-Difluorophenoxy)-3-isopropoxy-5-methyl-1H-pyrazol-1-yl)-6-methylpyridazine] |
